Earlier results, collected in EP0176772A1, “Process for sustaining the release of vitamins C and E” (RODISMA Pharmazeutische Produkte GmbH, priority 1984, dated 1986).
Where two headings read alike, the source gives them in different places.

Columns and labels:
[1] = not given; remark: listed apart in the source

For `Cc1c(C)c2c(c(C)c1O)CCC(C)(CCCC(C)CCCC(C)CCCC(C)C)O2` [D-alpha-Tocopherol], the “maximale Plasmaspiegel, time of” value (orale Verabreichung von 600 mg an eine Versuchsperson (Hashim und Schuttringer)) is given as roughly 7 Stunden and the “Maximum der Plasma-Tocopherol-Konzentration, time of” value (orale Verabreichung von (Hashim und Schuttringer)) is given as 7 Stunden.

In the case of `O=C1O[C@H]([C@@H](O)CO)C(O)=C1O` [Vitamin C, Ascorbinsäure], the Resorption ([1]; Einzeldosen bis 180 mg, dosisproportional (Kübler und Gehler)) is listed as roughly 70%, the resorbiert ([1]; Einzeldosis von 1 g, 3-Kompartiment-Modell (Hornig und Moser)) is listed as 75% and the resorbiert ([1]; orale Ascorbinsäurebelastung mit 12 g) is listed as 16%.

In the case of Vitamin E, the “Maximum (plasma vitamin E), time of” value (human, in vivo, po) is listed as 7 Stunden.
